Test results published in patent publication US11649255B2, “Indazoles as hematopoietic progenitor kinase 1 (HPK1) inhibitors and methods using same” (1st Biotherapeutics, Inc., priority 2020, dated 2023).

These compounds were tested against recombinant human HPK1 (Homo sapiens (Human), UniProt Q92918) (assay: HPK1 kinase assay (ADP-Glo)). Settings: 25 μM ATP, MBP substrate.
Chain of recombinant human HPK1 (Q92918 whole entry): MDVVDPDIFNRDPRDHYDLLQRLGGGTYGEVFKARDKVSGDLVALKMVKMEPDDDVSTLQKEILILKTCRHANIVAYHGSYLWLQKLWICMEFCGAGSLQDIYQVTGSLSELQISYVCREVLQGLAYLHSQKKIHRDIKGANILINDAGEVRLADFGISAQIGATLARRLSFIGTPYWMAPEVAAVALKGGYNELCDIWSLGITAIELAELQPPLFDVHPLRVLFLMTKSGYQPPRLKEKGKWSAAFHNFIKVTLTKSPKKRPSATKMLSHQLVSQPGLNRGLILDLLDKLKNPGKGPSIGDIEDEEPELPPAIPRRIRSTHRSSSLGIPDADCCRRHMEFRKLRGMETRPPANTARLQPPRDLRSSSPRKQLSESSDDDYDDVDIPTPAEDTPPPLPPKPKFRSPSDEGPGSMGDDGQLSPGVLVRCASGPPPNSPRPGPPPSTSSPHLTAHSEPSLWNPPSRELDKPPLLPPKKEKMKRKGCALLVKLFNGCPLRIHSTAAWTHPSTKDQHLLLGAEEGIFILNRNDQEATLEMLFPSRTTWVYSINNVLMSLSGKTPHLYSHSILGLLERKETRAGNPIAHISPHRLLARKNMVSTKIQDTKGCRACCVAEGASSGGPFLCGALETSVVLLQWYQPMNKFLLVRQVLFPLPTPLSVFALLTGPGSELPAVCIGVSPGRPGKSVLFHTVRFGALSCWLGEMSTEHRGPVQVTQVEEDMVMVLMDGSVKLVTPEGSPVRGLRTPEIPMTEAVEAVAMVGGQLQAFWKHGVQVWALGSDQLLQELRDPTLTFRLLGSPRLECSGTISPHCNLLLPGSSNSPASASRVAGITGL
Assay type: biochemical
Method in brief: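 Activity was read as ADP formed, detected by ADP-Glo luminescence after the reaction of 5 ng recombinant human HPK1 with MBP and ATP (stocks 0.5 μg/μl and 25 μM) for 40 min at 30 °C. Buffer was Tris pH 7.5 with MgCl2, BSA and DTT, with compound in 0.5% DMSO. IC50 came from inhibition curves.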
With `O=C(Nc1cc2cc(-c3c(Cl)c(F)c(SCCO)c4[nH]ncc34)ccn2n1)[C@@H]1C[C@@H]1F` [Example 520, (1S,2S)-N-(5-(5-chloro-6-fluoro-7-((2-hydroxyethyl)thio)-1H-indazol-4-yl)pyrazolo[1,5-a]pyridin-2-yl)-2-fluorocyclopropane-1-carboxamide] the IC50 was < 100 nM. In the case of `O=C(Nc1cn2cc(-c3c(Cl)c(F)c(N4CCC4)c4[nH]ncc34)ccc2n1)[C@@H]1C[C@@H]1F` [Example 283, (1S,2S)-N-(6-(7-(azetidin-1-yl)-5-chloro-6-fluoro-1H-indazol-4-yl)imidazo[1,2-a]pyridin-2-yl)-2-fluorocyclopropane-1-carboxamide], the IC50 is reported as < 100 nM. For `O=C(O)c1c(F)c(Cl)c(-c2ccn3nc(NC(=O)[C@@H]4C[C@@H]4F)cc3c2)c2cn[nH]c12` [Example 551, 5-chloro-6-fluoro-4-(2-((1S,2S)-2-fluorocyclopropane-1-carboxamido)pyrazolo[1,5-a]pyridin-5-yl)-1H-indazole-7-carboxylic acid], the IC50 was > 1000 nM. For `O=C(O)c1c(F)c(Cl)c(-c2ccc3nc(NC(=O)[C@@H]4C[C@@H]4F)cn3c2)c2cn[nH]c12` [Example 314, 5-chloro-6-fluoro-4-(2-((1S,2S)-2-fluorocyclopropane-1-carboxamido)imidazo[1,2-a]pyridin-6-yl)-1H-indazole-7-carboxylic acid], the IC50 was > 1000 nM. Compound `Cc1ccc2[nH]ncc2c1-c1ccc2nc(NC(=O)C3CC(F)(F)C3)sc2c1` [Example 11, 3,3-difluoro-N-(6-(5-methyl-1H-indazol-4-yl)benzo[d]thiazol-2-yl)cyclobutane-1-carboxamide] has an IC50 of 501 to 1000 nM. In the case of `Cc1c(F)c(C(=O)O)c2[nH]ncc2c1-c1ccc2nc(NC(=O)[C@@H]3C[C@@H]3F)sc2n1` [Example 188, 6-fluoro-4-(2-((1S,2S)-2-fluorocyclopropane-1-carboxamido)thiazolo[5,4-b]pyridin-5-yl)-5-methyl-1H-indazole-7-carboxylic acid], the IC50 is reported as > 1000 nM. For `CC(C)(O)c1c(F)c(Cl)c(-c2ccc3nc(NC(=O)[C@@H]4C[C@@H]4F)cn3c2)c2cn[nH]c12` [Example 389, (1S,2S)-N-(6-(5-chloro-6-fluoro-7-(2-hydroxypropan-2-yl)-1H-indazol-4-yl)imidazo[1,2-a]pyridin-2-yl)-2-fluorocyclopropane-1-carboxamide], the IC50 was < 100 nM. `O=C(Nc1cn2cc(-c3c(Cl)c(F)c(Cn4cncn4)c4[nH]ncc34)ccc2n1)[C@@H]1C[C@@H]1F` [Example 385, (1S,2S)-N-(6-(7-((1H-1,2,4-triazol-1-yl)methyl)-5-chloro-6-fluoro-1H-indazol-4-yl)imidazo[1,2-a]pyridin-2-yl)-2-fluorocyclopropane-1-carboxamide] was tested, and the IC50 was < 100 nM. `CCN(CC)c1c(F)c(Cl)c(-c2ccn3nc(NC(=O)[C@@H]4C[C@@H]4F)cc3c2)c2cn[nH]c12` [Example 497, (1S,2S)-N-(5-(5-chloro-7-(diethylamino)-6-fluoro-1H-indazol-4-yl)pyrazolo[1,5-a]pyridin-2-yl)-2-fluorocyclopropane-1-carboxamide] was tested, and the IC50 was < 100 nM. For `COc1c(F)c(C)c(-c2ccc3nc(NC(=O)[C@@H]4C[C@@H]4F)sc3c2)c2cn[nH]c12` [Example 97, (1S,2S)-2-fluoro-N-(6-(6-fluoro-7-methoxy-5-methyl-1H-indazol-4-yl)benzo[d]thiazol-2-yl)cyclopropanecarboxamide], the IC50 was < 100 nM. With `CN(CC(F)(F)F)C(=O)c1c(F)c(Cl)c(-c2ccc3nc(NC(=O)[C@@H]4C[C@@H]4F)cn3c2)c2cn[nH]c12` [Example 347, 5-chloro-6-fluoro-4-(2-((1S,2S)-2-fluorocyclopropane-1-carboxamido)imidazo[1,2-a]pyridin-6-yl)-N-methyl-N-(2,2,2-trifluoroethyl)-1H-indazole-7-carboxamide] the IC50 was < 100 nM. In the case of `CN1CCN(c2c(F)c(Cl)c(-c3ccc4nc(NC(=O)[C@@H]5C[C@@H]5F)cn4c3)c3cn[nH]c23)CC1` [Example 277, (1S,2S)-N-(6-(5-chloro-6-fluoro-7-(4-methylpiperazin-1-yl)-1H-indazol-4-yl)imidazo[1,2-a]pyridin-2-yl)-2-fluorocyclopropane-1-carboxamide], the IC50 is reported as 101 to 500 nM. In the case of `Cc1ccc2[nH]ncc2c1-c1ccc2nc(NC(=O)OC(C)(C)C)sc2c1` [Example 3, tert-butyl (6-(5-methyl-1H-indazol-4-yl)benzo[d]thiazol-2-yl)carbamate], the IC50 is reported as > 1000 nM. For `CNNc1c(F)c(Cl)c(-c2ccn3nc(NC(=O)[C@@H]4C[C@@H]4F)cc3c2)c2cn[nH]c12` [Example 553, (1S,2S)-N-(5-(5-chloro-6-fluoro-7-(2-methylhydrazineyl)-1H-indazol-4-yl)pyrazolo[1,5-a]pyridin-2-yl)-2-fluorocyclopropane-1-carboxamide], the IC50 was < 100 nM. For `COc1c(F)cc2[nH]ncc2c1-c1ccc2nc(NC(=O)C3CC3)cn2c1` [Example 252, N-(6-(6-fluoro-5-methoxy-1H-indazol-4-yl)imidazo[1,2-a]pyridin-2-yl)cyclopropanecarboxamide], the IC50 was < 100 nM.

These compounds were tested on human peripheral blood pan T cells (assay: IFNγ and IL-2 analysis of human peripheral pan T cells). Settings: T-cell, IFNγ secretion, CD3/CD28 bead stimulation, 100 nM Prostaglandin E2, 24 hr, read-out: IFNγ (EC50).
Assay type: cell-based
Method: IFNγ and IL-2 Analysis of Human Peripheral Pan T Cells
Human peripheral blood pan T cells were purchased from STEMCELL™ Technologies Inc. Human peripheral blood pan T cells were thawed and suspended in DMEM media (10% FBS and 10 Penicillin/Streptomycin). 8×10^4 T cells were seeded in 96-well plate and incubated with various concentration of compounds and 100 nM Prostaglandin E2 for 1 hr. T cells were stimulated with Dynabeads Human T-Activator CD3/CD28 (Life Technologies) at a 1:3 cells: beads ratio. […] Data were analyzed with an MESO Quickplex SQ120 (Mesoscale Discovery).
In Table 3, the values represent + for >1000 nM, ++ 200-1,000 nM, +++ for <200 nM and − for not determined.
Compound `O=C(Nc1cc2cc(-c3c(Cl)c(F)c(SCCO)c4[nH]ncc34)ccn2n1)[C@@H]1C[C@@H]1F` [Example 520, (1S,2S)-N-(5-(5-chloro-6-fluoro-7-((2-hydroxyethyl)thio)-1H-indazol-4-yl)pyrazolo[1,5-a]pyridin-2-yl)-2-fluorocyclopropane-1-carboxamide] has an EC50 of 200 to 1000 nM. In the case of `CSc1c(F)c(C)c(-c2ccc3nc(NC(=O)[C@@H]4C[C@@H]4F)sc3n2)c2cn[nH]c12` [Example 173, (1S,2S)-2-fluoro-N-(5-(6-fluoro-5-methyl-7-(methylthio)-1H-indazol-4-yl)thiazolo[5,4-b]pyridin-2-yl)cyclopropane-1-carboxamide], the EC50 is reported as 200 to 1000 nM. `CC(=O)N(C)c1c(F)c(C)c(-c2ccn3nc(NC(=O)[C@@H]4C[C@@H]4F)cc3c2)c2cn[nH]c12` [Example 550, (1S,2S)-2-fluoro-N-(5-(6-fluoro-5-methyl-7-(N-methylacetamido)-1H-indazol-4-yl)pyrazolo[1,5-a]pyridin-2-yl)cyclopropane-1-carboxamide] showed an EC50 of 200 to 1000 nM. In the case of `CCN(C)c1c(F)c(Cl)c(-c2ccc3nc(NC(=O)[C@@H]4C[C@@H]4F)sc3n2)c2cn[nH]c12` [Example 196, (1S,2S)-N-(5-(5-chloro-7-(ethyl(methyl)amino)-6-fluoro-1H-indazol-4-yl)thiazolo[5,4-b]pyridin-2-yl)-2-fluorocyclopropane-1-carboxamide], the EC50 is reported as 200 to 1000 nM. With `CCN(C)c1c(F)c(C)c(-c2ccc3nc(NC(=O)[C@@H]4C[C@@H]4F)cn3c2)c2cn[nH]c12` [Example 330, (1S,2S)-N-(6-(7-(ethyl(methyl)amino)-6-fluoro-5-methyl-1H-indazol-4-yl)imidazo[1,2-a]pyridin-2-yl)-2-fluorocyclopropane-1-carboxamide] the EC50 was 200 to 1000 nM. In the case of `CSc1c(F)c(SC)c2[nH]ncc2c1-c1ccc2nc(NC(=O)[C@@H]3C[C@@H]3F)sc2c1` [Example 111, (1S,2S)-2-fluoro-N-(6-(6-fluoro-5,7-bis(methylthio)-1H-indazol-4-yl)benzo[d]thiazol-2-yl)cyclopropane-1-carboxamide], the EC50 is reported as 200 to 1000 nM. With `CSc1c(F)c(C)c(-c2ccn3nc(NC(=O)C4CC4)cc3c2)c2cn[nH]c12` [Example 562, N-(5-(6-fluoro-5-methyl-7-(methylthio)-1H-indazol-4-yl)pyrazolo[1,5-a]pyridin-2-yl)cyclopropanecarboxamide] the EC50 was 200 to 1000 nM. Compound `CSc1c(F)c(C)c(-c2ccn3nc(NC(=O)[C@H]4C[C@H]4F)cc3c2)c2cn[nH]c12` [Example 574, (1R,2R)-2-fluoro-N-(5-(6-fluoro-5-methyl-7-(methylthio)-1H-indazol-4-yl)pyrazolo[1,5-a]pyridin-2-yl)cyclopropane-1-carboxamide] has an EC50 of 200 to 1000 nM.

Same assay, conditions: T-cell, IL-2 secretion, CD3/CD28 bead stimulation, 100 nM Prostaglandin E2, 24 hr, read-out: IL-2 (EC50)
Compound `CC(=O)N(C)c1c(F)c(C)c(-c2ccn3nc(NC(=O)[C@@H]4C[C@@H]4F)cc3c2)c2cn[nH]c12` [Example 550, (1S,2S)-2-fluoro-N-(5-(6-fluoro-5-methyl-7-(N-methylacetamido)-1H-indazol-4-yl)pyrazolo[1,5-a]pyridin-2-yl)cyclopropane-1-carboxamide] has an EC50 of 200 to 1000 nM. Compound `CCN(C)c1c(F)c(C)c(-c2ccc3nc(NC(=O)[C@@H]4C[C@@H]4F)cn3c2)c2cn[nH]c12` [Example 330, (1S,2S)-N-(6-(7-(ethyl(methyl)amino)-6-fluoro-5-methyl-1H-indazol-4-yl)imidazo[1,2-a]pyridin-2-yl)-2-fluorocyclopropane-1-carboxamide] has an EC50 of 200 to 1000 nM. In the case of `CSc1c(F)c(C)c(-c2ccn3nc(NC(=O)[C@H]4C[C@H]4F)cc3c2)c2cn[nH]c12` [Example 574, (1R,2R)-2-fluoro-N-(5-(6-fluoro-5-methyl-7-(methylthio)-1H-indazol-4-yl)pyrazolo[1,5-a]pyridin-2-yl)cyclopropane-1-carboxamide], the EC50 is reported as 200 to 1000 nM.
